This note sets out measurements from publication PMC6277780, “A Multi-Mode Bioactive Agent Isolated From Ficus microcarpa L. Fill. With Therapeutic Potential for Type 2 Diabetes Mellitus” (Frontiers in Pharmacology, 2018).

One assay deals with AMPK. Put plainly: AMPK activation potential in primary hepatocytes (western blot). Type of assay: cell-based, C57BL/6 mice. The conditions noted are these: 8 h, PA 20 μM, glucagon 2 μM. The protocol:
To evaluate the AMPK activation potential of PA we performed in vitro analysis. We used primary hepatocytes, derived from C57BL/6 mice (Cell Biologics; Cat. C57-6224F). Hepatocytes were kept in M199 (Corning), supplemented with FBS (fetal bovine serum 10%) and glutagro (1% Corning). Hepatocytes were then serum starved, overnight, and prior to procedure in RPMI 1640 (United States Biological Life Sciences, R8999). 8 h prior to harvest, cells were treated with glucagon (2 μM), or test sample (20 μM). Cells were rinsed with ice cold PBS, twice, after harvest and were placed on ice until the extraction of protein was carried out. Assay was conducted in triplicate with three plates for each treatment. Protein from cells was hauled out; quantified and western blot was performed to assess the activation of AMPK after treatment with PA and compared it with untreated control and the cells treated with glucagon.
Extraction of proteins and western blot analysis was carried out, as we already reported ([Akhtar et al., 2016]). Briefly, lysis buffer was added to the harvested cells. […] Concentration of protein in each lysate was measured using Pierce BCA protein assay kit (Thermo Scientific), as per manufacturer’s protocol. […]
(Immunoblotting shows a protein as a band on a membrane.)

Another assay addresses α-glucosidase (Saccharomyces cerevisiae, UniProt P53341). In words: α-Glucosidase inhibition assay (pNPG substrate, 405 nm). The assay is classed as biochemical. The conditions noted are these: Table 1, unit inferred.
The next assay has as its target DPP-4 (Homo sapiens, UniProt P27487). In words: DPP-4 inhibition assay (fluorometric, Gly-Pro-AMC). As to conditions: pure compound and positive control. Type of assay: biochemical. The method, then:
DPP-4 inhibition activity was assessed by using fluorometric technique, following the method documented by [Saleem et al., 2014]. This method calculates the quantity of free AMC (7-amino-4-methyl-coumarin). The AMC is released from the Gly-Pro-AMC which is the substrate of DPP-4. Experiment was performed in triplicate. Fluorescence was measured at Em 430 nm following excitation at Ex351 nm using a Tecan safire desktop fluorometer (Reading, England, United Kingdom). 50 mM HEPES buffer was used for preparation of each sample, whose pH was 7.4. To each well we added DPP-4 (20 μl 1 U/ml), test sample (20 μl) and […]. Plates were placed at 37°C for 1 h and then 3 mM acetic acid (100 μl) was pipetted to stop the reaction. We used Berberine (13 mM), as a control for each experiment, as already reported ([Al-Masri et al., 2009]). IC50 for inhibition of DPP-4 was calculated for each sample.

Sequence of DPP-4 (P27487 whole entry, species assumed): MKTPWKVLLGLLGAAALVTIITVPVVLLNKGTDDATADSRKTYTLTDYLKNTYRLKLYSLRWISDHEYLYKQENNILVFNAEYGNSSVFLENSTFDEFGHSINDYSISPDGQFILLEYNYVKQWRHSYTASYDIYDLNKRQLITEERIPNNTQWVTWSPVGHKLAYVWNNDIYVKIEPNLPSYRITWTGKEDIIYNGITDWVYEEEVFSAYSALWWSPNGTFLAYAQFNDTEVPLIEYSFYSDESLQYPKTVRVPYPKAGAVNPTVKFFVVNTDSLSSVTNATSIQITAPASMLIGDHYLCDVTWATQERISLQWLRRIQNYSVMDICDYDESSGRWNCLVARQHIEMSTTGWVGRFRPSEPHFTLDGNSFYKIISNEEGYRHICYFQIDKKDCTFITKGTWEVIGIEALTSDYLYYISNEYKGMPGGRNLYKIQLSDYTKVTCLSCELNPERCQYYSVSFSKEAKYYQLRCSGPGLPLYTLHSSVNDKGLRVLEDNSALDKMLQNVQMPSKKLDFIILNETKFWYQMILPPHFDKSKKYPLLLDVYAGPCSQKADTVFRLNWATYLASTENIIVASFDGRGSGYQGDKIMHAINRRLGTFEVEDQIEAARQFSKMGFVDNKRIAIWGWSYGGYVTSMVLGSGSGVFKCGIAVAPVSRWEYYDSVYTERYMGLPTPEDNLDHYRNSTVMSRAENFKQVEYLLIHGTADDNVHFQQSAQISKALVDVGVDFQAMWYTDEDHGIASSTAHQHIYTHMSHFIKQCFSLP
Sequence of α-glucosidase (P53341 whole entry): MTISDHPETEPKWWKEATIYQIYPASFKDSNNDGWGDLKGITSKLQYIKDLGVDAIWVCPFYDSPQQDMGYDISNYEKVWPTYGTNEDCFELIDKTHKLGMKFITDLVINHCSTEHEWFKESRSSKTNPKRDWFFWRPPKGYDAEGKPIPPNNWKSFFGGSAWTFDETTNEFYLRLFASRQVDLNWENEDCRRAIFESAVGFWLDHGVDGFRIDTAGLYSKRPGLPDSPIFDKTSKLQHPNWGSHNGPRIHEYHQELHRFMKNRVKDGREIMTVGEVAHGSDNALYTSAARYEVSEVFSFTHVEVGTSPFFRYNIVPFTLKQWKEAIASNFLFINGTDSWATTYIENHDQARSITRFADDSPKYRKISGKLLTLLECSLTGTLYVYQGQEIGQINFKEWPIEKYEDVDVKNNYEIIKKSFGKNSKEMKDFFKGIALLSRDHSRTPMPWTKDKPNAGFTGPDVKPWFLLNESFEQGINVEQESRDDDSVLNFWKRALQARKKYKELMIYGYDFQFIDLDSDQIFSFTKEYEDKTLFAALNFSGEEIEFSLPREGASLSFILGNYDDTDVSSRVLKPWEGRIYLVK
Experimental for α-glucosidase: α-Glucosidase inhibition activity of the fractions and pure compounds (both PA and FL) was determined using the method of [Li et al. (2005)], while few modifications were made, according to system suitability. […] The decrease in absorption spectrum of reaction mixture indicated the inhibition of α-glucosidase activity of the sample under test. Assays were conducted in triplicate in 96-well microtitre plates. […] Percentage of inhibition was calculate by using following formula.
(1) Inhibitory activity=(OD control−OD test sample)/OD control×100
IC50 was calculated by using table curve ASIN software (2D v4) through linear regression analysis.

glucagon [reference compound]: in the assay with AMPK, the “AMPK activation (phosphorylation of AMPK at Thr172)” value was “no AMPK activation” and the “phosphorylation of ACC to p-ACC at S79” value is listed as “not observed”.
3,4,5,7-Flavantetrol: the half-inhibitory concentration (IC50) (in general, the midpoint of a concentration-inhibition curve) at α-glucosidase was found to be 200 µM.
At DPP-4, `COc1ccc2cc3[n+](cc2c1OC)CCc1cc2c(cc1-3)OCO2` [Berberine, reference compound] registered an IC50 of 27.4 ± 2.2 µM.
